Experimental data as given in US20140120075A1, “Nanozyme Compositions and Methods of Synthesis and Use Thereof” (Board of Regents of the University of Nebraska, priority 2011, published 2014).

Legend:
[1] = target: Catalase (from bovine liver), DTSSP cross-linked cl-nanozyme with PEG-pLL50, purified (C2p) (Bos taurus, UniProt P00432)
Protocol: (§1) SOD1 (from bovine erythrocytes), hydrogen peroxide (H2O2), 2,3,5-triphenyltetrazolium chloride (TTC) and copper standards for Inductively Coupled Plasma Mass Spectroscopy (ICP-MS)—TraceCERT®, 1000 mg/L Cu in nitric acid) were from Sigma-Aldrich (St. Louis, Mo.). Catalase (from bovine liver) was from Calbiochem (Gibbstown, N.J.). PEG-pLL50 was from Alamanda Polymers™ (Huntsville, Ala.). […] Cross-linkers 3,3′-dithiobis(sulfosuccinimidylpropionate) (DTSSP) and bis(sulfosuccinimidyl)suberate (BS^3) were from Thermo Fisher Scientific (Rockford, Ill.). NAP™ desalting columns and HiPrep 16/60 Sephacryl S-400 HR column were from GE Healthcare (Piscataway, N.J.). Criterion Tris-HCl gels and Precision Plus Protein™ All Blue Standards were from Bio-Rad (Hercules, Calif.). SYPRO® Ruby protein gel stain and cell culture reagents were purchased from Invitrogen (Carlsbad, Calif.). CellTiter 96® AQueous One Solution Cell Proliferation Assay (MTS) was from Promega (Madison, Wis.). LumiMax Superoxide Anion Detection Kit was from Agilent Technologies, Inc. (Santa Clara, Calif.). All other reagents and supplies were from Fisher Scientific (Pittsburgh, Pa.) unless noted otherwise.
(§2) Enzyme and polymer stock solutions were prepared in 10 mM HEPES (pH 7.4) and 10 mM HEPES-buffered saline (HBS; pH 7.4) for SOD1 and catalase, respectively. Non-cross-linked BICs (Z+/−=2) were prepared as described (Klyachko et al. (2012) Nanomed. Nanotechnol. Biol. Med., 8:119-129). Targeted degree of cross-linking was defined as the molar ratio between cross-linker (DTSSP/BS^3) and pLL amines. Precalculated amount of the respective cross-linker was dissolved in the reaction buffer (HEPES/HBS), quickly added to BICs, and the reaction mixture was briefly vortexed and incubated for 2 hours on ice. Unreacted crosslinker was desalted using NAP™ columns following manufacturer's instructions. Cl-Nanozymes were purified using size exclusion chromatography (SEC) (small/intermediate scale) or centrifugal filtration (large scale). SEC was carried out using an ÄKTA™ Fast Protein Liquid Chromatography (FPLC) (Amersham Biosciences, Piscataway, N.J.) system. DTSSP cl-nanozymes were lyophilized overnight, reconstituted in deionized water (DW), loaded onto a HiPrep 16/60 Sephacryl™ S-400 HR column and eluted using 10 mM HBS (pH 7.4) at a flow rate of 0.5 mL/minute. Prior to each experiment, the column was pre-conditioned with free block copolymer (PEG-pLL50) to minimize non-specific adsorption of the cl-nanozymes (Boeckle et al. (2004) J. Gene Med., 6:1102-1111). Fractions spanning each distinct peak were pooled, concentrated using Amicon® Ultra-4 Centrifugal Filter Units with a molecular weight cutoff (MWCO) of 3000 Da and desalted using NAP™ columns as needed. Protein concentration was determined using Micro BCA™ Protein Assay Kit. In large-scale preparations, clnanozymes were purified by centrifugal filtration using Macrosep™ Centrifugal Device (Pall Life Sciences, Ann Arbor, Mich.) with a MWCO of either 100 kDa (for SOD1) or 1000 kDa (for catalase). Briefly, unreacted cross-linker in cross-linked BICs was desalted using NAP™ columns and eluate was collected in 10 mM HEPES containing 0.3 M NaCl (pH 7.4). Samples were loaded onto the centrifugal device and concentrated to 10% original volume by centrifuging at 4500 RPM. Two rounds of purification were done in 10 mM HEPES buffer containing 0.3 M NaCl (pH 7.4) and the third round was done in 10 mM HEPES buffer (pH 7.4). […]

[2] = target: Catalase (from bovine liver), DTSSP cross-linked cl-nanozyme with PEG-pLL50, non-purified (C2) (Bos taurus, UniProt P00432)
Protocol: as §1, §2

[3] = target: Catalase (from bovine liver), native (nC) (Bos taurus, UniProt P00432); conditions: 50 mM phosphate buffer pH 7.4
Protocol: as §1

Chain of Catalase (from bovine liver), DTSSP cross-linked cl-nanozyme with PEG-pLL50, purified (C2p) (P00432 whole entry): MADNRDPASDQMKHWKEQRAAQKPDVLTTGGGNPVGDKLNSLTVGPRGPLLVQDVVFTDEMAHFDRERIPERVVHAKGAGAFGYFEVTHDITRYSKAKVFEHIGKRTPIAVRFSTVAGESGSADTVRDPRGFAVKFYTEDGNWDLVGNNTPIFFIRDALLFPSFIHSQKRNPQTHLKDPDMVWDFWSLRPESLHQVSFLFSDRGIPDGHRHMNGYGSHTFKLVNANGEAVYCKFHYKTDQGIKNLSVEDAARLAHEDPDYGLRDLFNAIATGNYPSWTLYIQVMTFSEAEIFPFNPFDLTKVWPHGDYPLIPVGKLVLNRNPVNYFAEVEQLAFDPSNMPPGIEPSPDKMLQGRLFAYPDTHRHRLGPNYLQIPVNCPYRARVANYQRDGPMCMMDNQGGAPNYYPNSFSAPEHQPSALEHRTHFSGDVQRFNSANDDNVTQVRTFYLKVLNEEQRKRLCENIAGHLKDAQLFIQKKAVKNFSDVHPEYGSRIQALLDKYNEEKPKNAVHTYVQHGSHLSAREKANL
Chain of Catalase (from bovine liver), DTSSP cross-linked cl-nanozyme with PEG-pLL50, non-purified (C2) (P00432 whole entry): as above
Chain of Catalase (from bovine liver), native (nC) (P00432 whole entry): as above

OO [H2O2, hydrogen peroxide]
Kcat/Km ([1]; 50 mM phosphate buffer pH 7.4, C2p): 7.75e+06 M⁻¹ s⁻¹
catalytic efficiency (kcat/Km), per cent lower than nC ([1]; purified cl-nanozyme (C2p) compared to native enzyme (nC)): ca. 48%
catalytic efficiency (kcat/Km), per cent lower than C2 ([1]; purified cl-nanozyme (C2p) compared to non-purified (C2)): ~53%
Kcat/Km ([2]; 50 mM phosphate buffer pH 7.4, C2): 1.66e+07 M⁻¹ s⁻¹
increase in Km value ([2]; non-purified cl-nanozyme (C2) compared to native catalase (nC)): ca. 1.8 fold
Kcat/Km [3]: 1.5e+07 M⁻¹ s⁻¹
